Consider four molecules from patent US20040023884A1, “Biologically active peptides from functional domains of bactericidal/permeability-increasing protein and uses thereof” (priority 1993, published 2004).

“Also recorded” adds a separate entry of the source.

For test [1], the system named is E. coli 0111:B4 (smooth) bacteria. Description: Radial diffusion bactericidal assay, E. coli 0111:B4. Format: cell-based. The conditions noted are these: radial diffusion; for pmol added to well to achieve a 30 mm^2 bactericidal zone, E. coli O111:B4: PROBIT analysis, E. coli O111:B4 (smooth).
Test [2] concerns rough mutant E. coli J5 bacteria. As to the kind of experiment: Radial diffusion bactericidal assay, E. coli J5. The conditions noted are these: for pmol added to well to achieve a 30 mm^2 bactericidal zone, E. coli J5 / bactericidal activity (in words): radial diffusion; for pmol added to well to achieve a 30 mm^2 bactericidal zone, E. coli J5: PROBIT analysis, E. coli J5 (rough); for bactericidal activity (in words): E. coli J5. Format: cell-based. The method in brief: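 Wells received 5 or 10 μL of BPI fragment, pre-incubated 3 h at 37 °C. The underlayer agarose carried washed log-phase organisms at 4×10^6 CFU/mL.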

Test [3] deals with L-form of S. aureus ATCC 19640. As to the kind of experiment: Activity against L-forms of gram-positive bacteria. Format: cell-based. The procedure: The bactericidal capacity of BPI peptides provided by the invention was also tested against Gram-positive bacteria (See Table VIII A). […] In addition, peptides were tested for their activity against L-forms of gram-positive bacteria, such as the L-form of S. aureus ATCC 19640.

In test [4] the test system is Staphylococcus aureus. Description: Radial diffusion bactericidal assay, Staphylococcus aureus. Format: cell-based.
Test [5] concerns Klebsiella pneumoniae. As to the kind of experiment: Radial diffusion bactericidal assay, Klebsiella pneumoniae. Format: cell-based.
For test [6], the system named is E. coli strain 07-K1. As to the kind of experiment: Radial diffusion bactericidal assay, E. coli 07-K1. Format: cell-based. The conditions noted are these: FIG. 10c. The procedure:
BPI proteolytic fragments produced according to Example 1 were screened for bactericidal effects using rough mutant E. coli J5 bacteria in a radial diffusion assay. Specifically, an overnight culture of E. coli J5 was diluted 1:50 into fresh tryptic soy broth and incubated for 3 hours at 37° C. to attain log phase growth of the culture. Bacteria were then pelleted at 3,000 rpm for 5 minutes in a Sorvall RT6000B centrifuge (Sorvall Instruments, Newton, Conn.). 5 mL of 10 mM sodium phosphate buffer (pH 7.4) was added and the preparation was re-pelleted. […] The bacteria were diluted to 4×10^6 CFU/mL in 10 mL of molten underlayer agarose (at approximately 45° C.) and inverted repeatedly to mix in 15 mL polypropylene tubes conventionally used for this purpose.
The entire contents of such tubes were then poured into a level square petri dish and distributed evenly by rocking the dish side-to-side. […] A series of wells were then punched into the hardened agarose using a sterile 3 mm punch attached to a vacuum apparatus. The punch was sterilized with 100% alcohol and allowed to air dry prior to use to avoid contaminating the bacterial culture.
5 or 10 μL of each of the BPI fragments were carefully pipetted into each well. As a negative control, dilution buffer (pH 8.3) was added to a separate well, and rBPI23 at concentrations of 5 μg/mL and 1 μg/mL were also added as positive controls. Each plate was incubated at 37° C. for 3 hours, and then 10 mL of molten overlayer agarose (at approximately 45° C.) was added into the level petri dish, allowed to harden and incubated overnight at 37° C. […] The bacterial zones were measured with a micrometer.
Additional experiments were performed using various other bacteria as target cells to examine the range of bactericidal killing of these BPI functional domain peptides.

For test [7], the system named is E. coli 0113 LPS. Description: Limulus Amoebocyte Lysate (LAL) inhibition assay. Format: biochemical. The method in brief:
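BPI proteolytic fragments incubated with E. coli 0113 LPS (4 ng/mL final) for 3 h at 37 °C, then diluted in D-PBS to 200 pg/mL LPS for chromogenic LAL. Lysate 25 min, substrate 20–30 min at room temperature, acetic acid stop; OD405 expressed as percent LPS inhibition.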

Test [8] can be described thus: 3H-heparin binding assay (affinity and capacity). The settings on record: for cpm ^3H-Heparin bound: 100 picomoles of each fragment per well, saturating 3H-heparin 20 μg/mL, mean of duplicate wells ± range. In outline:
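Bound 3H-heparin was counted by liquid scintillation after 1 h incubation at 4 °C with fragments immobilised on PVDF-bottomed wells, then washing in blocking buffer. Signal was corrected for BSA-related background, and varying amounts of rBPI23 were used as positive control.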

The test system of test [9] is Pseudomonas aeruginosa. Description: Radial diffusion bactericidal assay, Pseudomonas aeruginosa. Format: cell-based. The settings on record: FIG. 11a; up to about 2000 pmol.
Test [10] deals with E. coli O18:K1:H7. Description: Radial diffusion bactericidal assay, E. coli O18:K1:H7. Format: cell-based. The settings on record: FIG. 11b; up to about 2000 pmol.
The subject of test [11] is E. coli O75. Description: Radial diffusion bactericidal assay, E. coli O75. Format: cell-based. The settings on record: FIG. 11d; up to about 2000 pmol.
The subject of test [12] is ATIII/heparin complexes. As to the kind of experiment: Thrombin inactivation by ATIII/heparin complexes (Chromostrate anti-thrombin assay). The settings on record: 1.0 to 100 μg/mL. Format: biochemical. The procedure: BPI functional domain peptides BPI.2, BPI.3, BPI.4, BPI.5, BPI.6, and BPI.8, along with rBPI23 as a positive control, were assayed for their effect on thrombin inactivation by ATIII/heparin complexes according to the method of Example 3 in copending and co-assigned U.S. patent application Ser. No. 08/093,202, filed Jul. 15, 1993, incorporated by reference. Specifically, a Chromostrate™ anti-thrombin assay kit (Organon Teknika Corp., Durham, N.C.) was used to examine the inhibition of purified thrombin by preformed ATIII/heparin complexes in plasma.
Briefly, the assay was performed in 96 well microtiter plates in triplicate with a final volume per well of 200 μL. Varying concentrations of the BPI functional domain peptides ranging from 1.0 μg/mL to 100 μg/mL were assayed to determine their effect on thrombin inhibition in the presence of pre-formed ATIII/heparin complexes. The order of addition of assay components was as follows: 1) a dilution series of rBPI23 or BPI functional domain peptides or thaumatin as a control protein, with final concentrations of 100, 50, 25, 10 and 1 μg/well, diluted in PBS in a final volume of 50 μL; 2) 50 μL plasma diluted 1:100 in a buffer supplied by the manufacturer, 3) 50 μl thrombin at 1 nKat/mL in a buffer supplied by the manufacturer, and 4) 50 μL chromogenic substrate at a concentration of 1 μmol/mL in water. The reaction was allowed to proceed for 10 minutes at 37° C. and stopped with the addition of 50 μL 0.1M citric acid. The colorimetric reaction was quantitated on a microplate reader as described in Example 3.

Test [13] can be described thus: In vivo APTT in heparinized rats. Details: species or system Sprague-Dawley rats. The settings on record: 100 U/kg heparin i.v., test protein 5 minutes later, blood 2 minutes after. The procedure:
The in vivo effect of exemplary BPI combination peptides on APTT in heparinized rats was determined and compared with the in vivo effect of rBPI23. APTT is lengthened by the presence of endogenous or exogenous inhibitors of thrombin formation, such as therapeutically administered heparin. Agents which neutralize the anti-coagulant effects of heparin will reduce the APTT as measured by this test. Sprague-Dawley rats housed under NIH guidelines were administered with 100 U/kg heparin by bolus intravenous injections via the animals' tail vein followed 5 minutes later by administration of varying amounts of test or control protein as compared with rBPI23. The APTT was then determined from blood samples collected from the abdominal aorta 2 minutes after the administration of the test or control protein. The APTT of untreated animals, as well as animals treated only with a BPI peptide, was also determined.

Test [14] relates to LPS-stimulated NO production by RAW 264.7 cells. Description: LPS-stimulated NO production by RAW 264.7 cells. Format: cell-based, mouse. The procedure: An additional LPS neutralization screening assay for BPI functional domain peptides was developed using an assay for NO production in mouse cells treated with LPS (see Lorsbach et al., 1993, J. Biol. Chem. 268: 1908-1913). In this assay, mouse RAW 264.7 cells (ATCC Accession No. TIB71) were treated with bacterial LPS. The cells were incubated in 96-well plates and stimulated for 2 hours with E. coli 0113 LPS or zymosan, in the presence or absence of _-interferon, rLBP, fetal bovine serum (FBS) or normal human serum (NHS), or rBPI21Δcys. After this incubation, the cells were washed with fresh media and incubated overnight in media containing 10% FCS. The NO released from the cells accumulated in the media and spontaneously converted to nitrite. This nitrite was assayed in situ by the Griess reaction, as follows. The nitrite was reacted with the primary amine of an added sulfanilamide and formed a diazonium salt. This salt was then reacted with added naphthylethylenediamine to form a red azo-dyc. The Griess reaction was performed at room temperature in about 10 minutes. The amount of produced NO was estimated from a standard curve of Griess reaction products determined spectrophotometrically as Absorbance at a wavelength of 550 nm.

A short description of test [15]: In vitro heparin-mediated lengthening of APTT / clotting time of heparinized plasma. Format: biochemical, human. The procedure: In vitro, the effect of BPI combination functional domain peptides was determined on heparin-mediated lengthening of activated partial […] (APTT). The APTT is lengthened by the presence of endogenous or exogenous inhibitors of thrombin formation, such as therapeutically administered heparin. Thus, agents which neutralize the anti-coagulant effects of heparin will reduce the APTT measured by the test. Citrated human plasma (200 μL) was incubated for 1 minute at 37° C. with either 15 μL of diluent (0.15 M NaCl, 0.1 M Tris-HCl, pH 7.4) or 15 μL of the diluent also containing 25 μg/mL heparin (187 units/mg). Various concentrations (from 0.0 to 56 μg/mL) of rBPI23, rBPI21Δcys, or BPI combination peptides BPI.29 (the DIII homodimer) and BPI.30 (heterodimer DII+DIII) in a volume of 15 μL were added, followed immediately by 100 μL of thrombin reagent (Catalog No. 845-4, Sigma Chemical Co., St. Louis. MO). Clotting time ([…]) was measured using a BBL Fibrometer (Becton Dickenson Microbiology Systems, Cockeysville, Md.). […] FIG. 12e illustrates the results obtained with BPI.30 on a non-log scale.

IKISGKWKAQKRKLK [BPI.120]: in test [1], the “pmol added to well to achieve a 30 mm^2 bactericidal zone, E. coli O111:B4” value is on record as “b (no detectable activity up to 5 μg/well)”. Moreover, the “pmol added to well to achieve a 30 mm^2 bactericidal zone, E. coli J5” value in test [2] is reported as “b (no detectable activity up to 5 μg/well)”. In addition, the “activity against L-form bacteria (in words)” value in test [3] is “active against these L-form bacteria”. For the same molecule, the “pmol added to well to achieve a 30 mm^2 bactericidal zone, S. aureus” value in test [4] (radial diffusion, PROBIT analysis, S. aureus) is reported as “b (no detectable activity up to 5 μg/well)”.
KWKAQKRFLK [BPI.8]: the “bactericidal activity (in words)” value in test [1] (E. coli 0111:B4) was “little to no bactericidal activity”; in test [5] (FIG. 11c, up to about 2000 pmol), “no bactericidal activity”; in test [5] (FIG. 10d), “no bactericidal activity at concentrations of 800 μg/mL”; in test [6], “low levels of bactericidal activity”; in [2], “little to no bactericidal activity; also recorded: no detectable bactericidal activity against E. coli J5 cells at concentrations of 1000 μg/mL; also recorded: little or no bactericidal activity”; in [9], “no bactericidal activity”. Moreover, the “bactericidal activity (in words)” value in test [10] is “no bactericidal activity”; in [4] (FIG. 10e), “no bactericidal activity at concentrations of 800 μg/mL”; in test [11] it was “no bactericidal activity”. Besides, the “pmol added to well to achieve a 30 mm^2 bactericidal zone, E. coli O111:B4” value in test [1] is reported as “b (no detectable activity up to 5 μg/well)”. Besides, the “LAL / LPS inhibition activity (in words)” value in test [7] was “no significant LPS inhibition activity”. In addition, the “pmol added to well to achieve a 30 mm^2 bactericidal zone, E. coli J5” value in test [2] is 25,695.10 pmol. For the same molecule, the “heparin binding activity (in words)” value in test [8] was “little or no heparin binding activity”. Further, the “heparin binding capacity (in words)” value in test [8] is given as “low heparin binding capacity”. Also, in [8] (heparin bound at saturation), the “Heparin Capacity” value is on record as 92.2 ng. Besides, the Kd in test [8] (read-out: Heparin Affinity) is 574 nM.
For the molecule thaumatin [reference compound], the “heparin neutralization effect (in words)” value in test [12] is “no neutralizing effect”. Besides, in test [8], the “cpm ^3H-Heparin bound” value was 7,432 ± 83 cpm. The “APTT in heparinized rats (in words)” value in [13] was “no effect on APTT times in heparinized animals”.

B1: rBPI23: recombinant 23 kD amino-terminal fragment, approximately the first 199 amino acid residues of human BPI (protein)
chain: VNPGVVVRISQKGLDYASQQGTAALQKELKRIKIPDYSDSFKIKHLGKGHYSFYSMDIREFQLPSSQISMVPNVGLKFSISNANIKISGKWKAQKRFLKMSGNFDLSIEGMSISADLKLGSNPTSGKPTITCSSCSSHINSVHVHISKSKVGWLIQLFHKKIESALRN
By IC50 is commonly meant the concentration needed to halve the response being measured. Consider B1, for which, in [14], the “IC50 of inhibition of LPS-stimulated NO production” value lay within 0.03 to 0.1 µg/mL. Besides, the “effect on the clotting time of heparinized blood (in words)” value in test [15] (FIG. 12g) is “smaller effect”. Besides, the “effect on heparin-mediated lengthening of APTT (in words)” value in test [15] (citrated human plasma, 25 μg/mL heparin, 0.0 to 56 μg/mL) is listed as “inhibits the heparin-mediated lengthening of APTT”. For the same molecule, in [6], the “bactericidal activity (in words)” value is listed as “no bactericidal activity at concentrations of 100 μg/mL; also recorded: low bactericidal activity even at concentrations of 1000 μg/mL”. For the same molecule, in test [7] (read-out: IC50 of inhibition of the LPS-induced LAL reaction), the IC50 stood at 9 nM. In addition, in [2], the “lowest amount with measurable bactericidal activity” value came to 0.75 pmol/well and the “bactericidal activity (in words)” value is given as “showed bactericidal activity”. In addition, the “cpm ^3H-Heparin bound” value in test [8] was 51,222 ± 1,808 cpm. Further, the “APTT in heparinized rats (in words)” value in [13] was “administration of about 5 mg/kg results in a APTT of the heparinized and BPI-treated animals that is almost the same as the untreated control animals”.
